Laboratory results as given in ChEMBL document CHEMBL1201862, “PubChem BioAssay data set” (2004).
Active and inactive are the calls of the source.

What was measured:
[1] = inhibitors of intracellular T. cruzi replication, confirmation, NIH3T3 host cells, beta-gal luminescence (AID 2044); type: functional, cell-based;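 further: intracellular parasites grown in NIH/3T3 mouse fibroblasts as host cells; luminescent beta-galactosidase reporter signal from transgenic T. cruzi replicating inside host cells; inhibitors lower the luminescence signal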
[2] = cytotoxicity toward NIH3T3 fibroblasts, dose response, counter-screen, cell-based, ATP luminescence, mouse fibroblasts (AID 2010); type: functional;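 further: cells exposed to compound for about 90 hours before reading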
Ephrin type-A receptor 4 = Ephrin type-A receptor 4 (Mus musculus, UniProt Q03137); assay: inhibitors of EphA4 binding to KYL peptide, primary screen, biochemical, colorimetric, mouse EphA4 (AID 689); type: functional
Sequence of Ephrin type-A receptor 4 (Q03137 whole entry): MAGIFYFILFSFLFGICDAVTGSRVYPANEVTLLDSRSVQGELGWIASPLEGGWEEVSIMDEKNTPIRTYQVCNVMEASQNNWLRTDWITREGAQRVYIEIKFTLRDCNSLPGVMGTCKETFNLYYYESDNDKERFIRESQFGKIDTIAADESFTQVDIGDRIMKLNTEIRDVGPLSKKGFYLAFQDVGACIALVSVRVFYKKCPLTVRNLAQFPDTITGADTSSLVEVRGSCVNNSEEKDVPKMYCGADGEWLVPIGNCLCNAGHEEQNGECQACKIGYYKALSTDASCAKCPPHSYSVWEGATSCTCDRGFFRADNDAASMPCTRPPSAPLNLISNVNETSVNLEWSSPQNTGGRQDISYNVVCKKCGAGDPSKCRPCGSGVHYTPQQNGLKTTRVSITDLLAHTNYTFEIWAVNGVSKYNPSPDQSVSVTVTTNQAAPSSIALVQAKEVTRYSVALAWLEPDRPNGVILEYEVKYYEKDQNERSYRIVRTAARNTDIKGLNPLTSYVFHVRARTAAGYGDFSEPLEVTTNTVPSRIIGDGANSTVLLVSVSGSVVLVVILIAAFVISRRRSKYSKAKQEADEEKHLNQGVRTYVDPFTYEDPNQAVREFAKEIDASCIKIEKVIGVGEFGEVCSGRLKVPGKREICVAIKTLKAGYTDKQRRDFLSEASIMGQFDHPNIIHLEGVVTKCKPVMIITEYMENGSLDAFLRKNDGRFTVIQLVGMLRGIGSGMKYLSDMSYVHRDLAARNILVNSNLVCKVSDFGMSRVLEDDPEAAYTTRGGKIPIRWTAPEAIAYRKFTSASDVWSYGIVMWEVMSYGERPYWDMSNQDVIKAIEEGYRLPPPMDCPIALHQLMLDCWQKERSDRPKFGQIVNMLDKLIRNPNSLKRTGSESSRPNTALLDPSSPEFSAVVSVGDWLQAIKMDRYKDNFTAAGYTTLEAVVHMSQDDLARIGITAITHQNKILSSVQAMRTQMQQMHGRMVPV

[3] = target: T1, Voltage-gated inwardly rectifying potassium channel KCNH2 (Homo sapiens, UniProt Q12809); assay: hERG protection from proarrhythmic block, potency, dose response, cell-based, thallium flux (AID 2121); type: ADME
T1 sequence (Q12809 whole entry): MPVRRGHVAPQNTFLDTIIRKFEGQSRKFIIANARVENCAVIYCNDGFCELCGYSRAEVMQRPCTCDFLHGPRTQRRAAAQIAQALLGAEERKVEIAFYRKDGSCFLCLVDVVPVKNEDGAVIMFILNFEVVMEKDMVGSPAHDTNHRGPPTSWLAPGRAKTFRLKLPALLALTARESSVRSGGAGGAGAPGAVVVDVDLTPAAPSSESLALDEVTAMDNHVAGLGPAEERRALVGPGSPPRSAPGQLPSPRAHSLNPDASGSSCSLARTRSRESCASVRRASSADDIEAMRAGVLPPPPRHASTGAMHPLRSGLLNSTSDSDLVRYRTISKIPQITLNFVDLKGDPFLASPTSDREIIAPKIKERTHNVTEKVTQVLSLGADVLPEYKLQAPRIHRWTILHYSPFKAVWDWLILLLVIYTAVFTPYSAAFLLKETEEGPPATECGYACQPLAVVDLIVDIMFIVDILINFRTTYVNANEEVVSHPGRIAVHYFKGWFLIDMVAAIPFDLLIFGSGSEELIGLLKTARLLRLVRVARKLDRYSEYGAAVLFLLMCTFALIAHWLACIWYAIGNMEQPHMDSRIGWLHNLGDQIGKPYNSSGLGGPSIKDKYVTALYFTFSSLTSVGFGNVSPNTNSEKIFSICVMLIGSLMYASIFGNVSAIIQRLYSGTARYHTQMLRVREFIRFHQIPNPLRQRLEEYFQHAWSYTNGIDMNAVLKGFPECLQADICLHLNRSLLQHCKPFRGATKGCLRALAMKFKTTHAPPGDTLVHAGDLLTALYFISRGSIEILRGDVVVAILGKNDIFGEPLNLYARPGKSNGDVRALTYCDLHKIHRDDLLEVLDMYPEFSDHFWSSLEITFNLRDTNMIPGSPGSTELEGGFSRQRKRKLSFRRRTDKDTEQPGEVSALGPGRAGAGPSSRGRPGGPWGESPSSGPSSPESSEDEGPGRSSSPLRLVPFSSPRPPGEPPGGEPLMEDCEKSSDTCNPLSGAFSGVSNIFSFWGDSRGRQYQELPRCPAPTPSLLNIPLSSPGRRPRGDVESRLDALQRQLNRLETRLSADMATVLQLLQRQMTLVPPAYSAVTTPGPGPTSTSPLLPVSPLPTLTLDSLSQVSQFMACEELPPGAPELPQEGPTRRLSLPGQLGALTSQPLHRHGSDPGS

[4] = A Cell Based Secondary Assay To Explore Cytotoxicity of Compounds that Sensitize Mycobacterium Tuberculosis to Beta-Lactam Antibiotics.; type: functional
[5] = Luminescence Cell-Based Dose Retest to Confirm Inhibitors of Cancer Stem Cells. [Related pubchem assays (depositor defined):AID2717, AID2721]; type: functional; settings: Homo sapiens
[6] = Shn3 3'UTR reporter inhibitors, dose response, cell-based, Clone20 osteoblasts, firefly luciferase, cherry-picked (AID 624132); type: functional;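 further: firefly luciferase luminescence from reporter carrying the Shn3 3'UTR in osteoblasts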
[7] = HepG2 cell cytotoxicity, dose response, cytotoxicity control for Shn3 inhibitor project, CellTiter-Glo, cherry-picked (AID 624134); type: functional, cell-based
[8] = control 3'UTR Renilla luciferase suppression, dose response, counter-screen for Shn3 inhibitor project, cell-based, Clone20-Shn3RL, cherry-picked (AID 624133); type: functional
[9] = reduction of Shn3 3'UTR firefly luciferase signal, dose response, Schnurri-3 inhibitor project, cell-based, Clone20 osteoblasts, cherry-pick, set 2 (AID 720490); type: functional;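 further: actives lower the luminescence signal as inhibitors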
[10] = inhibitors of control Renilla luciferase reporter, dose response, counter-screen for Shn3 3'UTR targeting project, Clone20-Shn3RL cells, dual-Glo, cherry-pick, set 2 (AID 720724); type: functional, cell-based; settings: Dual-Go Shn3RL
Cytochrome P450 1A2 = target: T2, Cytochrome P450 1A2 (Homo sapiens, UniProt P05177);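 further: PubChem cytochrome P450 panel assay, CYP1A2 panel member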
T2 sequence (P05177 whole entry): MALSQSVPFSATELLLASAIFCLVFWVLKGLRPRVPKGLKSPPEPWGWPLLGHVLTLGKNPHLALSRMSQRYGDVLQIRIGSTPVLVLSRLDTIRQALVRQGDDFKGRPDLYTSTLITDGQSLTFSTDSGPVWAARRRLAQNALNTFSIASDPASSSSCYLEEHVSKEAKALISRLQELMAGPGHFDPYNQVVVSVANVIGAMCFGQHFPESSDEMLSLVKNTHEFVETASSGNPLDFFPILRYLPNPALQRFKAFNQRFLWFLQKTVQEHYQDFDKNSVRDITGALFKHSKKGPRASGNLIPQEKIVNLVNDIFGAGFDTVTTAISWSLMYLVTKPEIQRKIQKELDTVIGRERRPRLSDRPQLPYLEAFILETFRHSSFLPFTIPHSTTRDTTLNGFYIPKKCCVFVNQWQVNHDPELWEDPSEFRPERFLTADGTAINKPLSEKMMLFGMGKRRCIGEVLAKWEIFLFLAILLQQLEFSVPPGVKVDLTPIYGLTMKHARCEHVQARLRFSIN

[11] = target: T1, Voltage-gated inwardly rectifying potassium channel KCNH2; settings: Potency
Cytochrome P450 3A4 = Cytochrome P450 3A4 (Homo sapiens, UniProt P08684);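 further: CYP3A4 tested as one member of a cytochrome P450 panel screen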
Sequence of Cytochrome P450 3A4 (P08684 whole entry): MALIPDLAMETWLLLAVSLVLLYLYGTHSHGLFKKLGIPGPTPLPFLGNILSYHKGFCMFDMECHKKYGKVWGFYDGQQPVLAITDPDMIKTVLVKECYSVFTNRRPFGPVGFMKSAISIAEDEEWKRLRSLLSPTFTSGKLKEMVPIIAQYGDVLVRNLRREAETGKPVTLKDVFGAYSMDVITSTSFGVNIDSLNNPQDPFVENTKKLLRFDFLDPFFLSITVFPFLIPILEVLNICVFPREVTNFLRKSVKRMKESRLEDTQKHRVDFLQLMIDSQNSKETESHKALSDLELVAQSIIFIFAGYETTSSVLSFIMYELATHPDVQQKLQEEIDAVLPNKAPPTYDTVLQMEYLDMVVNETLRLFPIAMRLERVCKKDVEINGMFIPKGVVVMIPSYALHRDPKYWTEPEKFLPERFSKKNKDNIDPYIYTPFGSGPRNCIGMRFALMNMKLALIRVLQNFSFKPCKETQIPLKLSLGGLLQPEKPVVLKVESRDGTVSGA

[12] = HEp-2 cell cytotoxicity, dose response, cytotoxicity control for RSV inhibitor project, HTS (AID 2410); type: functional; settings: human respiratory syncytial virus
Aminopeptidase N = target: T3, Aminopeptidase N (Plasmodium falciparum FcB1/Columbia, UniProt O96935); assay: P. falciparum M1AAP inhibitors, biochemical, fluorogenic H-Leu-NHMec substrate, 1536-well (AID 1445); design: species or system Plasmodium falciparum 3D7, 3D7
T3 sequence (O96935 whole entry): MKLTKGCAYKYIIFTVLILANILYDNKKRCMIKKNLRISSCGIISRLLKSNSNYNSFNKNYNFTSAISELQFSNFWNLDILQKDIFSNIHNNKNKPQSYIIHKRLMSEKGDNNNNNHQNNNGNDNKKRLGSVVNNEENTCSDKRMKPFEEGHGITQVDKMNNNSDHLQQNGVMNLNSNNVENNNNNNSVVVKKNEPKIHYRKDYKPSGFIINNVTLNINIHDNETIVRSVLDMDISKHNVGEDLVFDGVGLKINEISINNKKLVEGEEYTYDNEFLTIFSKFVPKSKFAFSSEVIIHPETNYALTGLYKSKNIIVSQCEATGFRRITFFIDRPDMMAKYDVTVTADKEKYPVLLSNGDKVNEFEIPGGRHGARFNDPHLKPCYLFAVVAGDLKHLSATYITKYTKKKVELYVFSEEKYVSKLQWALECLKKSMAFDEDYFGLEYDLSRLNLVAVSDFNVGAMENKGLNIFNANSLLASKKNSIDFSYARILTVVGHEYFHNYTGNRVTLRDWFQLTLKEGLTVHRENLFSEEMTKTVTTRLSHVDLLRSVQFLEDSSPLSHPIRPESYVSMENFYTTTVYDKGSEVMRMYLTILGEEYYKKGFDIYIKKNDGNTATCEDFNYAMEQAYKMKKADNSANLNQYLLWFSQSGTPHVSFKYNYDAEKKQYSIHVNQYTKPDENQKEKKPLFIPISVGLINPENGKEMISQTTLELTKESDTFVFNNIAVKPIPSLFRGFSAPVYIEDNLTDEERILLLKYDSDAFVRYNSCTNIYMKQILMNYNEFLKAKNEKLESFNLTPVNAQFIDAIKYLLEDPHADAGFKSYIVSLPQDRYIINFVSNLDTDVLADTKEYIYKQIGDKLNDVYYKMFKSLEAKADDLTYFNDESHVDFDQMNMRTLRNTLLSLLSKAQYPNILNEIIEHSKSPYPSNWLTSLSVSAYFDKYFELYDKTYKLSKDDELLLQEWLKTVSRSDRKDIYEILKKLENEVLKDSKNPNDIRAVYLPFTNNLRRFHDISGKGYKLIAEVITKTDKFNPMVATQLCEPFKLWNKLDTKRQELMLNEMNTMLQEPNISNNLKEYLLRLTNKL

[13] = target: T4, Heat shock factor protein 1 (Mus musculus, UniProt P38532); assay: HSF1 potentiators in luciferase reporter cells, confirmation, cell-based, NIH3T3, luminescence, dose retest (AID 435004); type: functional;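 further: stress induced by proteasome inhibitor MG132 added 30 min after compound; luciferase reporter driven by HSF1 response element in NIH3T3 cells; actives raise luminescence as potentiators of the MG132 stress response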
T4 sequence (P38532 whole entry): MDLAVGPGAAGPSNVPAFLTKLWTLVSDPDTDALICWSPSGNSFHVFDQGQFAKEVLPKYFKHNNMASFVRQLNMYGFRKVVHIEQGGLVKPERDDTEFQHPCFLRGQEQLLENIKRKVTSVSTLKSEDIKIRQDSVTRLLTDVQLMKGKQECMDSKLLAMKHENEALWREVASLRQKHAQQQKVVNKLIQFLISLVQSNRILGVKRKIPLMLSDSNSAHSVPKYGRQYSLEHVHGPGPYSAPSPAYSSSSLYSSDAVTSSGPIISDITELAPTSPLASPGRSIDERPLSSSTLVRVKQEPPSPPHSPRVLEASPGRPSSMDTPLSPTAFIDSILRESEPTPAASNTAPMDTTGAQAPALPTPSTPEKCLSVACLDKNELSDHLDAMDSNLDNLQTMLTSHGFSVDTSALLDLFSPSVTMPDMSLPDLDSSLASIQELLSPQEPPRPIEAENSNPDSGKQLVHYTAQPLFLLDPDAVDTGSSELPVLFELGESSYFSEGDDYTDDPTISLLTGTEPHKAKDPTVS

Caspase-6 = Caspase-6 (Homo sapiens, UniProt P55212); assay: human caspase-6 inhibitors, dose response, biochemical, VEID-R110 fluorescence, cherry-pick (AID 720632)
Sequence of Caspase-6 (P55212 24-179 limits assumed): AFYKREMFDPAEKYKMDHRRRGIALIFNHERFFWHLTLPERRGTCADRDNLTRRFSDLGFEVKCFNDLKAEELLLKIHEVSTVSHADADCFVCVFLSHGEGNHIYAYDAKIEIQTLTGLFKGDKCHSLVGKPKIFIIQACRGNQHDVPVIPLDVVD
Sequence of Caspase-6 (P55212 194-293 limits assumed): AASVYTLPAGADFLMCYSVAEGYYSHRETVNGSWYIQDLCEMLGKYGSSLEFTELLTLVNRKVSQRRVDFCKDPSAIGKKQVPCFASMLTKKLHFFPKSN

[14] = NIH-3T3 fibroblast cytotoxicity, dose response, cytotoxicity control, cell-based, fluorescence, Alamar Blue, secondary assay (AID 2327); type: functional;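 further: NIH-3T3 mouse fibroblasts cultured with fluconazole at 8 µg/mL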
[15] = inhibitors of firefly luciferase expression or activity, dose response, H4 neuroglioma cells, luminescence (AID 1990); type: functional, cell-based
cells [16] = type: functional, cell-based
[17] = Luminescence Cell-Based Dose Response HTS to Identify Inhibitors of 5'UTR Stem-Loop Driven Prion Protein mRNA Translation in H4 Neuroglioblastoma Cells. [Related pubchem assays: 1827 (Project Summary), 1813 (Primary HTS)]; type: functional
[18] = inhibitors of SNCA 5'UTR-driven reporter translation, confirmation, H4 neuroglioma cells, luminescence (AID 1988); type: functional, cell-based
[19] = C. albicans growth with fluconazole, confirmation, fluorescence, retest (AID 2467); type: functional, cell-based
cells [20] = type: functional, cell-based; remark: listed apart in the source
Nonstructural protein 1 = Nonstructural protein 1 (Influenza A virus, UniProt Q194T2); type: functional, Influenza A virus (A/California/07/2009(H1N1))
Sequence of Nonstructural protein 1 (Q194T2 whole entry): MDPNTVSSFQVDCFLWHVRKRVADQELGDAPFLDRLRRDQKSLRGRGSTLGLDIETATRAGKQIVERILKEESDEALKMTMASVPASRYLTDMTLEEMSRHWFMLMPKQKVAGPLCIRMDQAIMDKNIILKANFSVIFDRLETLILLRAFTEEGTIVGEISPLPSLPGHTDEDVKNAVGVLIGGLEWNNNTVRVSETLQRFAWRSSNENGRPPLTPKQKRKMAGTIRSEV

HEK293 = assay: inhibitors of LMP1-driven NF-kB reporter, dose response, cell-based, HEK293, luciferase, cherry-pick (AID 588343); type: functional; settings: Homo sapiens
INS1 = assay: beta cell apoptosis inhibitors, cytokine rescue, dose response, luminescence, retest (AID 449756); type: functional, cell-based; settings: Rattus norvegicus;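 further: cell death triggered by IL-1 beta plus TNF-alpha plus IFN-gamma mixture; protective hits raise ATP signal compared with cytokine alone wells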
[21] = Vero cell cytotoxicity, dose response, cytotoxicity control for Vif-APOBEC3G degradation inhibitor project, Vero cells (AID 1117358); type: functional; settings: Human immunodeficiency virus 1, Vero

Cc1ccc(C)c(N(CC(=O)N/N=C/c2ccc(-c3ccc([N+](=O)[O-])cc3)o2)S(=O)(=O)c2ccccc2)c1
> 30 µM (not active): EC50 [2]
active: EC50 [1] 1.65 µM
> 100 µM (not active): IC50 (Ephrin type-A receptor 4)

CC(C)c1ccc(/C=N/n2c(S)nnc2COc2ccccc2)cc1
active: EC50 [3] 7.6 µM

Nc1ncnc2c1c(-c1ccc(Oc3ccccc3)cc1)cn2C1CCCC1
inactive: AC50 [7] > 70 µM
inconclusive: AC50 (Cytochrome P450 1A2) 15.8 µM | AC50 [11] 5.01 µM | AC50 (Cytochrome P450 3A4)
active: CC50 [4] 0.802 µM | AC50 [5] 3.03 µM | AC50 [6] 0.658 µM | AC50 [8] 31.7 µM | AC50 [9] 4.83 µM | AC50 [10] 56.8 µM

CCOC(=O)COc1ccc(Br)cc1/C=C/c1nc(O)nc(O)c1[N+](=O)[O-]
active: CC50 [12] 12.7 µM | IC50 (Aminopeptidase N) 25.4 µM | EC50 [13] 15.6 µM | AC50 (Caspase-6) 5.09 µM

Oc1ccccc1/C=N/Nc1nccnc1Cl
active: EC50 [14] 38.5 µM | EC50 [15] 9.08 µM | EC50 (cells [16]) 9.82 µM | EC50 [17] 9.43 µM | EC50 [18] 4.65 µM | EC50 [19] 1.06 µM | EC50 (cells [20]) 7.95 µM | AC50 [5] 6.46 µM | IC50 (Nonstructural protein 1) 15.9 µM | AC50 (HEK293) 14.9 µM | AC50 (INS1) 0.747 µM | CC50 [21] 8.61 µM
